Molecules are shown by their SMILES. Values joined by “and” are separate entries in the source; they are usually repeats but may differ in a detail not shown here. Identical values can stand only once.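 Growth conditions: 96-well plates. Treatment: test compound, 48 hours, 5 concentrations. Analysis: linear interpolation between bracketing concentrations; unreached endpoints set to highest concentration. At the GI50, growth is halved. TGI marks complete inhibition of growth.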 Where a SMILES comes first, the peptide text is derived from it. The star is where a group is joined. Boc = CC(C)(C)OC(=O)*

What all share (experiment): NCI-60 cell line screen, 48 h
Test [1] deals with BT-549 breast.
Test [2] deals with IGROV1 ovarian.
Test [3] deals with HS 578T breast.
Test [4] concerns HCC-2998 colon.
Test [5] has as its system COLO 205 colon.
In test [6] the test system is K-562 leukemia.
In test [7] the test system is A549 NSCLC.
Test [8] deals with HCT-116 colon.
For test [9], the system named is NCI-H522 lung.
The subject of test [10] is OVCAR-5 ovarian.

Consider `NC(=O)N/N=C(\Cc1nc2ccc(Cl)cc2[nH]c1=O)C(=O)Nc1ccc(Cl)cc1Cl`, for which the TGI in [1], in test [2], in [3], in test [4], in test [5] and in test [6] was more than 100 µM each time. Besides, the TGI in test [7], in test [8], in test [9] and in test [10] was more than 100 µM each time.
In the case of `O=C1/C(=C/c2ccccc2)N=C(c2ccccc2)N1n1c(-c2ccccc2)nc2ccccc2c1=O`, the TGI in test [1], in [2], in test [3], in test [4], in [5] and in [6] was more than 100 µM in each case. Moreover, the TGI in [7], in test [8], in test [9] and in test [10] was more than 100 µM throughout.
For the compound `O=c1nc(N2CCN(c3ccccc3)CC2)ccn1C1OC(CO)C(O)C1O` (centres undefined), the TGI in test [1], in [2], in [3], in test [4], in [5] and in test [6] was more than 100 µM each time. Also, the TGI in test [7], in test [8], in [9] and in test [10] was more than 100 µM throughout.
As to `OCCCCCNc1c2ccccc2nc2ccccc12`, the TGI in test [1] worked out at 25.3 µM; in [2] it was 12.2 µM; in [3] it was 8.57 µM; in test [4], 3.36 µM; in test [5] it was 4.54 µM; in [6], 14.2 µM. For the same compound, the TGI was more than 29.7 µM in [7], 21.1 µM in test [8], 10.2 µM in test [9] and 10.2 µM in test [10].
As to `CCOP(=O)(OCC)/C(C#N)=C/c1cnc(-c2ccccc2)[nH]1`, the TGI in test [1], in [2], in test [3], in [4], in [5] and in test [6] was more than 100 µM each time. For the same compound, the TGI in test [7], in test [8], in test [9] and in test [10] was more than 100 µM each time.
As to `CC(=O)OCC1OC(OC(C)(C)CC/C=C(\C)[C@@H]2C/C=C(\C)CC/C=C(\C)CC2)C(O)C(O)C1OC(C)=O` (some centres undefined), the TGI is 88.6 µM and 34.8 µM in test [1]; > 79.1 µM and 32 µM in [2]; 30.5 µM in test [3]; > 100 µM and 35.9 µM in test [4]; 76.9 µM and 32.5 µM in test [5]; 61.4 µM and > 100 µM in test [6]. Moreover, the TGI in test [7] was > 100 µM and 36 µM; in [8] it was > 60.1 µM and 60.9 µM; in test [9], 28.8 µM and 37.4 µM; in [10] it was > 100 µM and 34.1 µM. For the same compound, the GI50 in test [4] is 69.8 µM and 17.9 µM; in test [5], 35.7 µM and 15.8 µM; in test [7], > 65.2 µM and 16.2 µM; in test [10], > 100 µM and 16.6 µM.
`COCOC1/C=C/CCCCC2=C(C)C=C(C1)O2` (centres undefined): the TGI in test [1], in test [2], in [3], in test [4], in [5] and in [6] was more than 100 µM throughout. For the same compound, the TGI in test [7], in test [8], in test [9] and in test [10] was more than 100 µM each time.
Regarding `COC(=O)CNC(=O)C(Cc1ccccc1)NC(=O)C(CCSC)NC(=O)C(Cc1ccc(O)cc1)NC(=O)OC(C)(C)C` (centres undefined) (Boc-YMFG-OMe; configuration not given here), the TGI in test [1] was more than 100 µM; in test [2], more than 100 µM; in test [3], more than 100 µM; in test [4] it was 64.1 µM; in test [5] it was more than 100 µM; in test [6] it was more than 100 µM. The TGI in test [7] is more than 100 µM; in test [8], more than 100 µM; in test [9] it was 43 µM; in test [10], more than 100 µM.
On to `Cc1ccc([C@@H]2[C@@H](C(=O)c3ccccn3)[C@H](c3ccc(C)cc3)C[C@](O)(c3ccccn3)[C@H]2C(=O)c2ccccn2)cc1`, for which the TGI in [1], in test [2], in test [3], in [4], in test [5] and in test [6] was more than 100 µM throughout. For the same compound, the TGI in test [7] is more than 44.7 µM; in test [8], more than 100 µM; in test [9], more than 100 µM; in test [10] it was more than 85.8 µM.
For the compound `CC(C)(N=NC(C)(C)C(=O)NCCO)C(=O)NCCO`, the TGI in [1], in [2], in test [3], in test [4], in [5] and in test [6] was more than 100 µM throughout. The TGI in [7], in test [8], in [9] and in test [10] was more than 100 µM each time.
With `CCOc1cc(NC(C)=O)ccc1C(=O)NNC(=O)c1ccccc1OC(C)=O`, the TGI was more than 100 µM in [1]; more than 100 µM in [2]; more than 100 µM in test [3]; more than 100 µM in [4]; more than 77.9 µM in [5]; more than 40.3 µM in [6]. In addition, the TGI in test [7] was more than 100 µM; in test [8], more than 36.8 µM; in test [9], more than 100 µM; in [10], more than 89.4 µM.
